A word on the MIC: it is the least concentration at which growth counts as inhibited. The low end stands for a more susceptible organism, the high end for a less susceptible organism.

In test [1] the test system is Candida parapsilosis 937 A. Briefly: Minimum Inhibitory Concentration (MIC) by broth dilution in microtitre tray. The class given is cell-based. The note with it: inoculum 10^5 cells/ml, 37° C. The protocol: (§1) The Minimum Inhibitory Concentration (MIC) was determined by diluting the test compound in a broth medium in a microtitre tray. The organisms, which had been grown previously in a broth medium, were diluted and added to the wells to provide a final inoculum of approximately 10^5 colony-formingunits per well. The trays were incubated at 37° C. and the turbidity of each well noted at intervals. The MIC was taken as the lowest concentration (in μg/ml) which prevented significant growth. |Minimum Inhibitory Concentration (μg/ml) |(determined after 2 and 3 days incubation) | *Inoculum 10^5 cells/ml | YNB: Yeast Nitrogen Base Broth | SAB: Sabouraud's Dextrose Broth.
A general note: Dilution methods test growth across graded concentrations, often in twofold steps.

Another test concerns Candida albicans 73/079. Described as above. The class given is cell-based. Conditions: inoculum 10^5 cells/ml, 37° C. The protocol: as §1
Setting [2] is: 48 h, day 2, YNB (Yeast Nitrogen Base Broth).
Setting [3] is: 72 h, day 3, YNB (Yeast Nitrogen Base Broth).

Each structure is given as a SMILES string. Converted amounts (≈) assume the structure as drawn.

Consider `C[C@@H]1[C@H](O)[C@@H](C)/C=C/C=C/C=C/C=C/C=C/C=C/C=C/[C@H](O[C@@H]2O[C@H](C)[C@@H](O)[C@H](N)[C@@H]2O)C[C@@H]2O[C@](O)(C[C@@H](O)C[C@@H](O)[C@H](O)CC[C@@H](O)C[C@@H](O)CC(=O)O[C@H]1C)C[C@H](O)[C@H]2CO` [Example 4, 16-Decarboxy-16-hydroxymethylamohotericin B], for which the MIC was 1 µg/mL (≈ 1.1 µM) in test [1] (937A, 48 h, day 2, SAB (Sabouraud's Dextrose Broth)); 2 µg/mL (≈ 2.2 µM) in test [1] (937A, 72 h, day 3, SAB (Sabouraud's Dextrose Broth)); 8 µg/mL (≈ 8.79 µM) in test [1] (setting [2]); 8 µg/mL (≈ 8.79 µM) in test [1] (setting [3]); 1 µg/mL (≈ 1.1 µM) against Candida albicans 73/079 (setting [2]); 2 µg/mL (≈ 2.2 µM) against Candida albicans 73/079 (setting [3]). For the same molecule, the minimum inhibitory concentration (MIC) with Candida albicans 73/079 (Candida albicans, 73/079, 48 h, day 2, SAB (Sabouraud's Dextrose Broth)) was 1 µg/mL (≈ 1.1 µM); in the test on Candida albicans 73/079 (Candida albicans, 73/079, 72 h, day 3, SAB (Sabouraud's Dextrose Broth)) it was 1 µg/mL (≈ 1.1 µM).

(Values after patent US5100876A, “16-decarboxy-16-hydroxy derivatives of amphotericin B” (Beecham Group p.l.c., priority 1988, dated 1992).)
